IC50 data for one compound are collected here from patent US20090285774A1, “Hepatitis C Virus Inhibitors” (Bristol-Myers Squibb Company, priority 2008, published 2009).

The target in one experiment is T1, human liver cathepsin B (Homo sapiens, UniProt P07858).
T1 construct: host or cells: human liver (from the name)
In words: Specificity assay, cathepsin B. The format is biochemical. Particulars: read-out: Cathepsin B activity in the specificity assays (IC50). As to the method:
The specificities of compounds of the present disclosure were determined against a variety of serine proteases: human neutrophil elastase (HNE), porcine pancreatic elastase (PPE) and human pancreatic chymotrypsin and one cysteine protease: human liver cathepsin B. In all cases a 96-well plate format protocol using a fluorometric Amino-Methyl-Coumarin (AMC) substrate specific for each enzyme was used as described previously (PCT Patent Application No. WO 00/09543) with some modifications to the serine protease assays. All enzymes were purchased from Sigma, EMDbiosciences while the substrates were from Bachem, Sigma and EMDbiosciences.
Compound concentrations varied from 100 to 0.4 μM depending on their potency. The enzyme assays were each initiated by addition of substrate to enzyme-inhibitor pre-incubated for 10 min at room temperature and hydrolysis to 15% conversion as measured on cytofluor. […]
The percentage of inhibition was calculated using the formula: […]

Experiment [1] has as its target T2, HCV NS3/4A protease complex, BMS strain (genotype 1a) (UniProt P27958, species not given/STRAIN_BMS).
T2 construct: DNA encoding the recombinant HCV NS3/4A protease complex (amino acids 1027 to 1711) for these strains [given for H77 and J4L6S only]; These are given only for the H77 and J4L6S constructs
The experiment in a line: FRET peptide assay to monitor HCV NS3/4A proteolytic activity (BMS strain). It is filed as biochemical. The source says: HCV NS3 protease complexes, derived from the BMS strain, H77 strain or J4L6S strain, were generated, as described below. These purified recombinant proteins were generated for use in a homogeneous assay (see below) to provide an indication of how effective compounds of the present disclosure would be in inhibiting HCV NS3 proteolytic activity.
Serum from an HCV-infected patient was obtained from Dr. T. Wright, San Francisco Hospital. An engineered full-length cDNA (compliment deoxyribonucleic acid) template of the HCV genome (BMS strain) was constructed from DNA fragments obtained by reverse transcription-PCR (RT-PCR) of serum RNA (ribonucleic acid) and using primers selected on the basis of homology between other genotype 1a strains. From the determination of the entire genome sequence, a genotype 1a was assigned to the HCV isolate according to the classification of Simmonds et al. (See P Simmonds, K A Rose, S Graham, S W Chan, F McOmish, B C Dow, E A Follett, P L Yap and H Marsdeni, J. Clin. Microbiol., 31(6):1493-1503 (1993)). […] The infectious clones, H77 (1a genotype) and J4L6S (1b genotype) were obtained from R. Purcell (NIH) and the sequences are published in Genbank (AAB67036, see Yanagi, M., Purcell, R. H., Emerson, S. U. and Bukh, J. Proc. Natl. Acad. Sci. U.S.A. 94(16):8738-8743 (1997); AF054247, see Yanagi, M., St Claire, M., Shapiro, M., Emerson, S. U., Purcell, R. H. and Bukh, J, Virology 244 (1), 161-172. (1998)).
The H77 and J4L6S strains were used for production of recombinant NS3/4A protease complexes. DNA encoding the recombinant HCV NS3/4A protease complex (amino acids 1027 to 1711) for these strains were manipulated as described by P. Gallinari et al. (see Gallinari P, Paolini C, Breruian D, Nardi C, Steinlkuhler C, De Francesco R. Biochemistry. 38(17);5620-32, (1999)). Briefly, a three-lysine solubilizing tail was added at the 3′-end of the NS4A coding region. The cysteine in the P1 position of the NS4A-NS4B cleavage site (amino acid 1711) was changed to a glycine to avoid the proteolytic cleavage of the lysine tag. Furthermore, a cysteine to serine mutation was introduced by PCR at amino acid position 1454 to prevent the autolytic cleavage in the NS3 helicase domain. The variant DNA fragment was cloned in the pET21b bacterial expression vector (Novagen) and the NS3/4A complex was expressed in Escherichia. coli strain BL21 (DE3) (Invitrogen) following the protocol described by P. Gallinari et al. (see Gallinari P, Breinan D, Nardi C, Brunetti M, Tomei L, Steinkuhler C, De Francesco R., J Virol. 72(8):6758-69 (1998)) with modifications. Briefly, the NS3/4A protease complex expression was induced with 0.5 millimolar (mM) Isopropyl β-D-1-thiogalactopyranoside (IPTG) for 22 hours (h) at 20° C. A typical fermentation (1 Liter (L)) yielded approximately 10 grams (g) of wet cell paste. The cells were resuspended in lysis buffer (10 mL/g) consisting of 25 mM N-(2-Hydroxyethyl)Piperazine-N′-(2-Ethane Sulfonic acid) (HEPES), pH 7.5, 20% glycerol, 500 mM Sodium Chloride (NaCl), 0.5% Triton X-100, 1 microgram/milliliter (“μg/mL”) lysozyme, 5 mM Magnesium Chloride (MgCl2), 1 μg/ml DnaseI, 5mM β-Mercaptoethanol (βME), Protease inhibitor-Ethylenediamine Tetraacetic acid (EDTA) free (Roche), homogenized and incubated for 20 minutes (min) at 4° C. The homogenate was sonicated and clarified by ultra-centrifugation at 235000 g for 1 hour (h) at 4° C. Imidazole was added to the supernatant to a final concentration of 15 mM and the pH adjusted to 8.0. The crude protein extract was loaded on a Nickel-Nitrilotriacetic acid (Ni-NTA) column pre-equilibrated with buffer B (25 mM HEPES, pH 8.0, 20% glycerol, 500 mM NaCl, 0.5% Triton X-100, 15 mM imidazole, 5 mM βMB). The sample was loaded at a flow rate of 1 mL/min. The column was washed with 15 column volumes of buffer C (same as buffer B except with 0.2% Triton X-100). The protein was eluted with 5 column volumes of buffer D (same as buffer C except with 200 mM Imidazole). […]

Read-outs that look alike come from different tables or passages of the source.

T2 sequence (P27958 1027-1657, stated change not applied, one chain of several): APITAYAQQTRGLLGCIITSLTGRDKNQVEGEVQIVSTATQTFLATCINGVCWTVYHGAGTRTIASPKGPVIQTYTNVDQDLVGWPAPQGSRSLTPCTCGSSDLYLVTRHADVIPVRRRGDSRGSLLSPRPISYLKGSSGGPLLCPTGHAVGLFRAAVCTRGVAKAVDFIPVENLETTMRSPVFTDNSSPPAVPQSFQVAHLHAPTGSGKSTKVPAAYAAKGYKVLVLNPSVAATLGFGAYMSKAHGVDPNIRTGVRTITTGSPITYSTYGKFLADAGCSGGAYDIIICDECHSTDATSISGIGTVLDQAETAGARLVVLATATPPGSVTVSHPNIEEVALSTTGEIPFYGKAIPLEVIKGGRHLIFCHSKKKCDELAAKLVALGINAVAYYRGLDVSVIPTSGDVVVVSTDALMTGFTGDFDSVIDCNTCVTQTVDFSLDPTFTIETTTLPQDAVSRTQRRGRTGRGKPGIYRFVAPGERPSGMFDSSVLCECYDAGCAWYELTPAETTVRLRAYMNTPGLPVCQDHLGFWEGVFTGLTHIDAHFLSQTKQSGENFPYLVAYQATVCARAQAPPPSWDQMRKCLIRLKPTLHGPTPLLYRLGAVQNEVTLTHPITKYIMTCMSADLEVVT

For the compound `C=C[C@@H]1C[C@]1(NC(=O)[C@@H]1C[C@@H](OC(=O)N2Cc3cccc(F)c3C2)CN1C(=O)C(Nc1cc(C)cc(C)n1)C(C)C)C(=O)NS(=O)(=O)C1CC1` (single isomer, unassigned) [Compound 2A], the IC50 is more than 100000 nM at human liver cathepsin B; 8.9 nM in experiment [1] (BMS strain, read-out: IC50 against the NS3/4A BMS strain in the enzyme assay); 4 to 20 nM in experiment [1] (NS3/4A BMS strain, activity range, read-out: IC50 (range or value)).
